In US10377742B2, “AMPK-activating heterocyclic compounds and methods for using the same” (Rigel Pharmaceuticals, Inc., priority 2010, dated 2019) one finds EC50 data, which are given here for 25 compounds.

The target in this experiment is AMPK. As to the kind of experiment: AMPK activation, enzyme-linked immunosorbent assay. The experiment is classed as biochemical. The procedure:
Compounds were assayed for their ability to activate AMPK using an enzyme-linked immunosorbent assay. Reagents and procedures for measuring AMPK activation are well known and kits for AMPK activation assays are commercially available.

As a reminder, the EC50 is the concentration at which the effect is half-maximal. As to `N#Cc1ccc(OC2CCN(C(=O)c3ccc(C(=O)N[C@H]4CC[C@@H](Oc5ccc(F)cc5)CC4)nc3)CC2)cc1` [Compound 303, 5-(4-(4-cyanophenoxy)piperidine-1-carbonyl)-N-((cis)-4-(4-fluorophenoxy)cyclohexyl)picolinamide], the EC50 was < 500 nM.

For `N#Cc1ccc(O[C@H]2CC[C@@H](NC(=O)c3ccc(C(=O)N4CCC(Oc5cccc(NC(=O)C6CC6)c5)CC4)nc3)CC2)cc1` [Compound 434, N-((cis)-4-(4-cyanophenoxy)cyclohexyl)-6-(4-(3-(cyclopropanecarboxamido)phenoxy)piperidine-1-carbonyl)nicotinamide], the EC50 is < 500 nM. With `N#Cc1ccc(OC2CCN(C(=O)c3ccc(C(=O)N[C@H]4CC[C@@H](Oc5ccc(F)cc5)CC4)cn3)CC2)cc1` [Compound 324, 6-(4-(4-cyanophenoxy)piperidine-1-carbonyl)-N-((cis)-4-(4-fluorophenoxy)cyclohexyl)nicotinamide], the EC50 was < 500 nM.

Take `COc1ccc(C(=O)C2CCN(C(=O)c3ccc(C(=O)N[C@@H]4CCN(Cc5ccc(C#N)cc5)C[C@@H]4F)cn3)CC2)cc1` (relative stereo) [Compound 454, N-((cis)-1-(4-cyanobenzyl)-3-fluoropiperidin-4-yl)-6-(4-(4-methoxybenzoyl)piperidine-1-carbonyl)nicotinamide]: the EC50 was < 500 nM.

On to `COc1ccc(C(=O)C2CCN(C(=O)c3ccc(C(=O)N[C@H]4CC[C@@H](Oc5ccc(F)cc5)CC4)cn3)CC2)cc1` [Compound 316, N-((cis)-4-(4-fluorophenoxy)cyclohexyl)-6-(4-(4-methoxybenzoyl)piperidine-1-carbonyl)nicotinamide], for which the EC50 is < 500 nM. For `N#Cc1ccc(CN2CCC(NC(=O)c3ccc(Nc4ccc(Cc5ccccc5)cc4)cn3)CC2)cc1` [Compound 108, 5-(4-benzylphenylamino)-N-(1-(4-cyanobenzyl)piperidin-4-yl)picolinamide] the value was 500 to 1000 nM; for `N#Cc1ccc(O[C@H]2CC[C@@H](NC(=O)c3ccc(C(=O)N4CCC(Oc5ccc(C(F)(F)F)cc5)CC4)cn3)CC2)cc1F` [Compound 199, N-((cis)-4-(4-cyano-3-fluorophenoxy)cyclohexyl)-5-(4-(4-(trifluoromethyl)phenoxy)piperidine-1-carbonyl)picolinamide], < 500 nM. Regarding `COc1ccc(C(=O)C2CCN(C(=O)c3ccc(C(=O)N[C@@H]4CCN(Cc5ccc(OC(C)C)cc5)C[C@H]4F)cn3)CC2)cc1` (relative stereo) [Compound 353, N-((trans)-3-fluoro-1-(4-isopropoxybenzyl)piperidin-4-yl)-6-(4-(4-methoxybenzoyl)piperidine-1-carbonyl)nicotinamide], the half-maximal effective concentration (EC50) was < 500 nM. For `O=C(N[C@H]1CC[C@@H](Oc2ccc(F)cc2)CC1)c1ccc(C(=O)N2CCC(C(=O)c3ccc(F)cc3)CC2)cn1` [Compound 304, 5-(4-(4-fluorobenzoyl)piperidine-1-carbonyl)-N-((cis)-4-(4-fluorophenoxy)cyclohexyl)picolinamide] the value was < 500 nM; for `COc1ccc(C(=O)C2CCN(C(=O)c3ccc(C(=O)N[C@@H]4CCN(Cc5ccc(C#N)c(F)c5)C[C@H]4F)cn3)CC2)cc1` (relative stereo) [Compound 354, N-((trans)-1-(4-cyano-3-fluorobenzyl)-3-fluoropiperidin-4-yl)-6-(4-(4-methoxybenzoyl)piperidine-1-carbonyl)nicotinamide], < 500 nM. With `COc1ccc(C(=O)C2CCN(C(=O)c3ccc(C(=O)N[C@H]4CC[C@@H](Oc5cc(F)cc(F)c5)CC4)nc3)CC2)cc1` [Compound 300, N-((cis)-4-(3,5-difluorophenoxy)cyclohexyl)-5-(4-(4-methoxybenzoyl)piperidine-1-carbonyl)picolinamide] the figure was < 500 nM; with `O=C(N[C@H]1CC[C@@H](Oc2ccc(F)cc2)CC1)c1ccc(C(=O)N2CCC(Oc3ccc(F)cc3)CC2)cn1` [Compound 312, N-((cis)-4-(4-fluorophenoxy)cyclohexyl)-5-(4-(4-fluorophenoxy)piperidine-1-carbonyl)picolinamide], < 500 nM. For the compound `CS(=O)(=O)c1ccc(N2CCC(NC(=O)c3ccc(C(=O)N4CCN(Cc5ccc(F)cc5)CC4)nc3)CC2)cc1` [Compound 421, 6-(4-(4-fluorobenzyl)piperazine-1-carbonyl)-N-(1-(4-(methylsulfonyl)phenyl)piperidin-4-yl)nicotinamide], the EC50 was in the range of 1000 to 5000 nM.

`COc1ccc(C(=O)C2CCN(C(=O)c3ccc(C(=O)N[C@@H]4CCN(Cc5cc(C)on5)C[C@@H]4F)cn3)CC2)cc1` [Compound 426, N-((3S,4R)-3-fluoro-1-((5-methylisoxazol-3-yl)methyl)piperidin-4-yl)-6-(4-(4-methoxybenzoyl)piperidine-1-carbonyl)nicotinamide]: the EC50 is < 500 nM. Turning to `N#Cc1ccc(CN2CCc3ccc(NC(=O)c4ccc(C(=O)N5CCN(Cc6ccc(F)cc6)CC5)cn4)cc3C2)cc1` [Compound 132, N-(2-(4-cyanobenzyl)-1,2,3,4-tetrahydroisoquinolin-7-yl)-5-(4-(4-fluorobenzyl)piperazine-1-carbonyl)picolinamide], the EC50 was < 500 nM. Regarding `CC(=O)c1ccc(OC2CCN(C(=O)c3ccc(C(=O)NC4CCC(Oc5ccc(C#N)cc5)CC4)cn3)CC2)cc1` (stereo not shown) [Compound 402, 6-(4-(4-acetylphenoxy)piperidine-1-carbonyl)-N-(4-(4-cyanophenoxy)cyclohexyl)nicotinamide], the EC50 is < 500 nM. For `N#Cc1ccc(O[C@H]2CC[C@@H](NC(=O)c3ccc(C(=O)N4CCN(Cc5ccc(F)cc5)CC4)nc3)CC2)cc1` [Compound 332, N-((cis)-4-(4-cyanophenoxy)cyclohexyl)-6-(4-(4-fluorobenzyl)piperazine-1-carbonyl)nicotinamide] the value was < 500 nM; for `COc1ccc(C(=O)C2CCN(C(=O)c3ccc(C(=O)N[C@H]4CC[C@@H](Oc5ccc(F)cc5)CC4)nc3)CC2)cc1` [Compound 311, N-((cis)-4-(4-fluorophenoxy)cyclohexyl)-5-(4-(4-methoxybenzoyl)piperidine-1-carbonyl)picolinamide], < 500 nM.

Regarding `N#Cc1ccc(CN2CC[C@@H](NC(=O)c3ccc(C(=O)N4CCC(Oc5ccc(S(=O)(=O)C(F)(F)F)cc5)CC4)nc3)C(F)C2)cc1` (stereo in doubt) [Compound 451, N-((3S,4R)-1-(4-cyanobenzyl)-3-fluoropiperidin-4-yl)-6-(4-(4-(trifluoromethylsulfonyl)phenoxy)piperidine-1-carbonyl)nicotinamide], the EC50 is < 500 nM.

Turning to `N#Cc1ccc(OC2CCN(C(=O)c3ccc(C(=O)N[C@H]4CC[C@@H](Oc5ccc(C#N)cc5)CC4)cn3)CC2)cc1` [Compound 321, N-((cis)-4-(4-cyanophenoxy)cyclohexyl)-6-(4-(4-cyanophenoxy)piperidine-1-carbonyl)nicotinamide], the EC50 is < 500 nM. For `COc1ccc(C(=O)C2CCN(C(=O)c3ccc(C(=O)N[C@@H]4CCN(Cc5csc(C)n5)C[C@@H]4F)cn3)CC2)cc1` [Compound 427, N-((3S,4R)-3-fluoro-1-((2-methylthiazol-4-yl)methyl)piperidin-4-yl)-6-(4-(4-methoxybenzoyl)piperidine-1-carbonyl)nicotinamide] the value was 1000 to 5000 nM. With `N#Cc1ccc(CN2CCC(NC(=O)c3ccc(C(=O)N4CCC(Cc5ccccc5)CC4)cn3)CC2)cc1` [Compound 124, 5-(4-benzylpiperidine-1-carbonyl)-N-(1-(4-cyanobenzyl)piperidin-4-yl)picolinamide] the figure was < 500 nM. For `N#Cc1ccc(CN2CCC(NC(=O)c3ccc(C(=O)N4CCC(Oc5ccc(C#N)cc5)CC4)nn3)CC2)cc1` [Compound 388, N-(1-(4-cyanobenzyl)piperidin-4-yl)-6-(4-(4-cyanophenoxy)piperidine-1-carbonyl)pyridazine-3-carboxamide] the value was < 500 nM; for `COc1ccc(C(=O)C2CCN(C(=O)c3ccc(C(=O)N[C@@H]4CCN(Cc5ccc(OC(F)(F)F)cc5)C[C@H]4F)cn3)CC2)cc1` (relative stereo) [Compound 350, N-((trans)-3-fluoro-1-(4-(trifluoromethoxy)benzyl)piperidin-4-yl)-6-(4-(4-methoxybenzoyl)piperidine-1-carbonyl)nicotinamide], < 500 nM. In the case of `N#Cc1ccc(O[C@H]2CC[C@@H](NC(=O)c3ccc(C(=O)N4CCC(C(=O)c5ccc(N6CCCC6)cc5)CC4)nc3)CC2)cc1` [Compound 442, N-((cis)-4-(4-cyanophenoxy)cyclohexyl)-6-(4-(4-(pyrrolidin-1-yl)benzoyl)piperidine-1-carbonyl)nicotinamide], the EC50 was < 500 nM.
